Experimental data: PubChem BioAssay AID248 (DTP/NCI, 2004)
Values joined by “and” are separate entries in the source; they are usually repeats but may differ in a detail not shown here. Equal entries are not always repeated. Toxic doses and inconclusive results are not listed. Cut-off read from the data, not from the text of the source: active = T/C of 150% or more; inactive = T/C below 125%.

Test system: L1210 leukemia ip in BDF1 mice, survival T/C
Assay: NCI In Vivo Anticancer Drug Screen. Data for tumor model L1210 Leukemia (intraperitoneal) in B6D2F1 (BDF1) mice
Details: higher = longer survival
Procedure, shortened: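 In this screen, tumor-bearing mice given compound are compared to those given vehicle, and their survival values are reported as a treated-to-control quotient.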

Measured: T/C

CC[n+]1c(-c2ccccc2)c2cc(N)ccc2c2ccc(N)cc21
inactive: endpoint: mean survival time, dose: 0.63 mg/kg/injection, schedule: Q01DX Z (ip), vehicle: saline 113 % of control | endpoint: mean survival time, dose: 1.25 mg/kg/injection, schedule: Q01DX Z (ip), vehicle: saline 122 % of control | endpoint: mean survival time, dose: 2.25 mg/kg/injection, schedule: Q01DX001 (ip), vehicle: saline 110 % of control and 113 % of control | endpoint: mean survival time, dose: 2.25 mg/kg/injection, schedule: Q07DX003 (ip), vehicle: saline 113 % of control | endpoint: mean survival time, dose: 2.5 mg/kg/injection, schedule: Q01DX005 (ip), vehicle: saline 109 % of control | endpoint: mean survival time, dose: 2.5 mg/kg/injection, schedule: Q01DX009 (ip), vehicle: saline 107 % of control | endpoint: mean survival time, dose: 2.5 mg/kg/injection, schedule: Q## X040 (ip), vehicle: saline 107 % of control | endpoint: mean survival time, dose: 2.5 mg/kg/injection, schedule: Q#A X Z (ip), vehicle: saline 108 % of control | endpoint: mean survival time, dose: 4.4 mg/kg/injection, schedule: Q02DX010 (ip), vehicle: saline 110 % of control | endpoint: mean survival time, dose: 4.5 mg/kg/injection, schedule: Q01DX001 (ip), vehicle: saline 104 % of control and 113 % of control | endpoint: mean survival time, dose: 4.5 mg/kg/injection, schedule: Q07DX003 (ip), vehicle: saline 109 % of control | endpoint: mean survival time, dose: 5.0 mg/kg/injection, schedule: Q01DX005 (ip), vehicle: saline 116 % of control | endpoint: mean survival time, dose: 5.0 mg/kg/injection, schedule: Q01DX006 (iv), vehicle: saline 104 % of control | endpoint: mean survival time, dose: 5.0 mg/kg/injection, schedule: Q01DX009 (ip), vehicle: saline 108 % of control | endpoint: mean survival time, dose: 5.0 mg/kg/injection, schedule: Q01DX Z (im), vehicle: saline 106 % of control | endpoint: mean survival time, dose: 5.0 mg/kg/injection, schedule: Q01DX Z (sc), vehicle: saline 110 % of control | endpoint: mean survival time, dose: 5.0 mg/kg/injection, schedule: Q## X040 (ip), vehicle: saline 111 % of control | endpoint: mean survival time, dose: 5.3 mg/kg/injection, schedule: Q02DX010 (ip), vehicle: saline 116 % of control | endpoint: mean survival time, dose: 6.6 mg/kg/injection, schedule: Q02DX010 (ip), vehicle: saline 116 % of control | endpoint: mean survival time, dose: 9.0 mg/kg/injection, schedule: Q01DX001 (ip), vehicle: saline 113 % of control and 116 % of control | endpoint: mean survival time, dose: 9.0 mg/kg/injection, schedule: Q07DX003 (ip), vehicle: saline 110 % of control | endpoint: mean survival time, dose: 9.9 mg/kg/injection, schedule: Q02DX010 (ip), vehicle: saline 115 % of control | endpoint: mean survival time, dose: 10.0 mg/kg/injection, schedule: Q01DX005 (ip), vehicle: saline 120 % of control | endpoint: mean survival time, dose: 10.0 mg/kg/injection, schedule: Q01DX006 (iv), vehicle: saline 123 % of control | endpoint: mean survival time, dose: 10.0 mg/kg/injection, schedule: Q01DX009 (ip), vehicle: saline 116 % of control | endpoint: mean survival time, dose: 10.0 mg/kg/injection, schedule: Q01DX Z (im), vehicle: saline 119 % of control | endpoint: mean survival time, dose: 10.0 mg/kg/injection, schedule: Q01DX Z (sc), vehicle: saline 116 % of control | endpoint: mean survival time, dose: 10.0 mg/kg/injection, schedule: Q## X040 (ip), vehicle: saline 112 % of control | endpoint: mean survival time, dose: 10.0 mg/kg/injection, schedule: Q#A X Z (ip), vehicle: saline 112 % of control | endpoint: mean survival time, dose: 12.5 mg/kg/injection, schedule: Q04DX003 (ip), vehicle: water 104 % of control | endpoint: mean survival time, dose: 14.85 mg/kg/injection, schedule: Q02DX010 (ip), vehicle: saline 113 % of control | endpoint: mean survival time, dose: 15.0 mg/kg/injection, schedule: Q03DX006 (ip), vehicle: saline 118 % of control | endpoint: mean survival time, dose: 18.0 mg/kg/injection, schedule: Q01DX001 (ip), vehicle: saline 116 % of control and 121 % of control | endpoint: mean survival time, dose: 18.0 mg/kg/injection, schedule: Q07DX003 (ip), vehicle: saline 122 % of control | endpoint: mean survival time, dose: 20.0 mg/kg/injection, schedule: Q01DX001 (ip), vehicle: saline 109 % of control | endpoint: mean survival time, dose: 20.0 mg/kg/injection, schedule: Q01DX001 (sc), vehicle: saline 103 % of control | endpoint: mean survival time, dose: 20.0 mg/kg/injection, schedule: Q01DX003 (ip), vehicle: saline 118 % of control | endpoint: mean survival time, dose: 20.0 mg/kg/injection, schedule: Q01DX005 (ip), vehicle: saline 110 % of control | endpoint: mean survival time, dose: 20.0 mg/kg/injection, schedule: Q01DX009 (ip), vehicle: saline 117 % of control | endpoint: mean survival time, dose: 20.0 mg/kg/injection, schedule: Q01DX Z (im), vehicle: saline 116 % of control | endpoint: mean survival time, dose: 20.0 mg/kg/injection, schedule: Q01DX Z (ip), vehicle: saline 95 % of control | endpoint: mean survival time, dose: 20.0 mg/kg/injection, schedule: Q01DX Z (oral), vehicle: saline 110 % of control | endpoint: mean survival time, dose: 20.0 mg/kg/injection, schedule: Q01DX Z (sc), vehicle: saline 122 % of control | endpoint: mean survival time, dose: 20.0 mg/kg/injection, schedule: Q## X008 (ip), vehicle: saline 94 % of control | endpoint: mean survival time, dose: 20.0 mg/kg/injection, schedule: Q## X024 (ip), vehicle: saline 107 % of control | endpoint: mean survival time, dose: 22.27 mg/kg/injection, schedule: Q02DX010 (ip), vehicle: saline 117 % of control | endpoint: mean survival time, dose: 25.0 mg/kg/injection, schedule: Q04DX003 (ip), vehicle: water 104 % of control | endpoint: mean survival time, dose: 40.0 mg/kg/injection, schedule: Q01DX001 (ip), vehicle: saline 118 % of control | endpoint: mean survival time, dose: 40.0 mg/kg/injection, schedule: Q01DX001 (sc), vehicle: saline 102 % of control | endpoint: mean survival time, dose: 40.0 mg/kg/injection, schedule: Q01DX003 (ip), vehicle: saline 110 % of control | endpoint: mean survival time, dose: 40.0 mg/kg/injection, schedule: Q01DX005 (ip), vehicle: saline 96 % of control | endpoint: mean survival time, dose: 40.0 mg/kg/injection, schedule: Q01DX009 (ip), vehicle: saline 90 % of control | endpoint: mean survival time, dose: 40.0 mg/kg/injection, schedule: Q01DX Z (oral), vehicle: saline 113 % of control | endpoint: mean survival time, dose: 40.0 mg/kg/injection, schedule: Q## X008 (ip), vehicle: saline 95 % of control | endpoint: mean survival time, dose: 40.0 mg/kg/injection, schedule: Q## X024 (ip), vehicle: saline 111 % of control | endpoint: mean survival time, dose: 40.0 mg/kg/injection, schedule: Q## X040 (ip), vehicle: saline 93 % of control | endpoint: mean survival time, dose: 60.0 mg/kg/injection, schedule: Q03DX006 (ip), vehicle: saline 93 % of control | endpoint: mean survival time, dose: 70.0 mg/kg/injection, schedule: Q01DX001 (ip), vehicle: saline 118 % of control and 119 % of control | endpoint: mean survival time, dose: 70.0 mg/kg/injection, schedule: Q07DX003 (ip), vehicle: saline 124 % of control | endpoint: mean survival time, dose: 80.0 mg/kg/injection, schedule: Q01DX001 (ip), vehicle: saline 103 % of control | endpoint: mean survival time, dose: 80.0 mg/kg/injection, schedule: Q01DX001 (sc), vehicle: saline 108 % of control | endpoint: mean survival time, dose: 80.0 mg/kg/injection, schedule: Q01DX003 (ip), vehicle: saline 98 % of control | endpoint: mean survival time, dose: 80.0 mg/kg/injection, schedule: Q01DX Z (oral), vehicle: saline 108 % of control | endpoint: mean survival time, dose: 80.0 mg/kg/injection, schedule: Q## X008 (ip), vehicle: saline 103 % of control | endpoint: mean survival time, dose: 140.0 mg/kg/injection, schedule: Q01DX001 (ip), vehicle: saline 104 % of control and 124 % of control | endpoint: mean survival time, dose: 160.0 mg/kg/injection, schedule: Q01DX001 (ip), vehicle: saline 94 % of control | endpoint: mean survival time, dose: 160.0 mg/kg/injection, schedule: Q01DX Z (oral), vehicle: saline 113 % of control | endpoint: mean survival time, dose: 160.0 mg/kg/injection, schedule: Q## X024 (ip), vehicle: saline 94 % of control | endpoint: mean survival time, dose: 200.0 mg/kg/injection, schedule: Q01DX001 (oral), vehicle: saline 103 % of control | endpoint: mean survival time, dose: 215.0 mg/kg/injection, schedule: Q04DX003 (ip), vehicle: water 109 % of control | endpoint: mean survival time, dose: 400.0 mg/kg/injection, schedule: Q01DX001 (oral), vehicle: saline 103 % of control | endpoint: mean survival time, dose: 430.0 mg/kg/injection, schedule: Q04DX003 (ip), vehicle: water 93 % of control | endpoint: mean survival time, dose: 800.0 mg/kg/injection, schedule: Q01DX001 (oral), vehicle: saline 101 % of control | endpoint: mean survival time, dose: 1600.0 mg/kg/injection, schedule: Q01DX001 (oral), vehicle: saline 102 % of control | endpoint: median survival time, dose: 3.6 mg/kg/injection, schedule: Q01DX005 (ip), vehicle: water 105 % of control | endpoint: median survival time, dose: 5.0 mg/kg/injection, schedule: Q01DX009 (ip), vehicle: water 109 % of control and 110 % of control | endpoint: median survival time, dose: 6.0 mg/kg/injection, schedule: Q01DX005 (ip), vehicle: water 100 % of control | endpoint: median survival time, dose: 10.0 mg/kg/injection, schedule: Q01DX005 (ip), vehicle: water 111 % of control | endpoint: median survival time, dose: 10.0 mg/kg/injection, schedule: Q01DX009 (ip), vehicle: water 116 % of control and 120 % of control | endpoint: median survival time, dose: 17.0 mg/kg/injection, schedule: Q01DX005 (ip), vehicle: water 111 % of control | endpoint: median survival time, dose: 17.0 mg/kg/injection, schedule: Q04DX003 (ip), vehicle: water 100 % of control | endpoint: median survival time, dose: 20.0 mg/kg/injection, schedule: Q01DX009 (ip), vehicle: water 90 % of control | endpoint: median survival time, dose: 29.0 mg/kg/injection, schedule: Q01DX005 (ip), vehicle: water 116 % of control | endpoint: median survival time, dose: 29.0 mg/kg/injection, schedule: Q04DX003 (ip), vehicle: water 100 % of control | endpoint: median survival time, dose: 40.0 mg/kg/injection, schedule: Q01DX009 (ip), vehicle: water 70 % of control | endpoint: median survival time, dose: 48.0 mg/kg/injection, schedule: Q04DX003 (ip), vehicle: water 100 % of control | endpoint: median survival time, dose: 49.0 mg/kg/injection, schedule: Q01DX005 (ip), vehicle: water 116 % of control | endpoint: median survival time, dose: 80.0 mg/kg/injection, schedule: Q04DX003 (ip), vehicle: water 105 % of control | endpoint: median survival time, dose: 134.0 mg/kg/injection, schedule: Q04DX003 (ip), vehicle: water 111 % of control
